Test results published in PMC4459817, “Vasculotide reduces endothelial permeability and tumor cell extravasation in the absence of binding to or agonistic activation of Tie2” (EMBO Molecular Medicine, 2015).

Test system: HT29luc metastases in YFP-SCID mice
Test: experimental HT29luc liver/lymphatic metastasis model (IV)
Format: in vivo, human HT29luc cells in YFP-SCID mice
Conditions: VT vs PBS; Fig3A–D; 35DPI imaging
Excerpt: Figure 3 Vasculotide has no effect on experimental liver metastases from a colon cancer cell line (HT29^luc), nor on experimental lung metastases from a renal cancer cell line (SN12^luc) • A–D An experiment where HT29^luc tumor cells were implanted intravenously into YFP-SCID mice. (A) Kaplan–Meier survival analysis. (B) Quantification of total metastatic burden in the liver and lymphatics, at 35 days post-implantation (DPI), from whole-body bioluminescent imaging (C). (D) Photograph of typical liver metastases. • E–G An experiment where SN12^luc tumor cells were implanted intravenously into YFP-SCID mice. (E) Kaplan–Meier survival analysis. (F) Quantification of total metastatic burden at 50DPI, mostly within the lungs, from whole-body bioluminescent imaging (G). […]
For in vivo BI: Mice were injected intraperitoneally with 150mg/kg luciferin (Promega) 10 minutes prior to and anesthetized with isofluorane just before luminescent pseudocolor imaging (uniform settings: CCD camera locked at -105 °C, exposure=60s, f/1, subject size=1.5cm, bin=8, FOV=23.2cm, full image correction) using the IVIS 200 Imaging System (Caliper/PerkinElmer). Using the Living Image software (v2.50.1, Xenogen), weekly images were analyzed under uniform color range on grayscale photographic overlay. […]

CHHHRHSF [Vasculotide, 4-armed maleimide-functionalized polyethylene glycol (PEG) backbone to link together four cysteine-capped T7 peptides, that is, CHHHRHSF]
survival, metastatic burden (IVBI) and liver-specific metastases: No significant differences
